# Values quoted from earlier work in patent publication US4800194A, “Acylphosphorotriamides useful as lipid-altering agents” (priority 1986, dated 1989).
# Assays:
# pseudocholinesterase = settings: accidental poisoning; cited from earlier work
# [1] = accidental poisoning; cited from earlier work
smiles,measurement,setting,value
CCOP(=S)(OCC)Oc1ccc([N+](=O)[O-])cc1 [parathione],blood plasma level of pseudocholinesterase,pseudocholinesterase,markedly decreased
same,HDL,[1],increased
same,blood plasma level of LDL,[1],markedly decreased
